Measurements as given in US7169789B2 (Kirin Beer Kabushiki Kaisha, priority 1999, dated 2007).

Tests used:
Human glioma cells GL07 = test: Antitumor effect on human glioma cells (GL07) transplanted into nude mice; type: in vivo; conditions: 20 mg/kg once a day for 9 days
Method in brief: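 GL07 xenografts in nude mice, grouped (n=4) at ~100 mm^3 tumor volume. Test compound 20 mg/kg p.o. or i.p. once daily for 9 days; vehicle controls. TGIR = (1−Tx/Cx)×100 from tumor volumes normalized to day-of-start volume = 1.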

[1] = test system: A375 human melanoma cells; test: Karyomorphosis test; type: cell-based; conditions: test compound 10 μM and 1 μM, 48 hr, nuclei stained with propidium iodide
Method: A375 human melanoma cells (2×10^4) (obtained from Japanese Foundation for Cancer Research) were incolulated on a culture slide (manufactured by Falcon) and were cultured at 37° C. After the elapse of 5 hr from the initiation of the cultivation, the test compound was added to 10 μM and 1 μM, and the cultivation was continued for additional 48 hr. After the fixation of cells, 50 μg/ml propidium iodide solution containing ribonuclease (200 μg/ml) was added to stain nuclei. The stained nuclei were observed under a fluorescent microscope to analyze the nuclei for abnormality of karyomorphosis.

[2] = test system: activation of MAPK within vascular endothelial cells induced by VEGF stimulation; test: Inhibitory activity against activation of MAPK within vascular endothelial cells induced by VEGF stimulation; type: cell-based; conditions: human funicular venous vascular endothelial cells, VEGF 50 ng/ml, phosphorylated MAPK by immunoblotting
Method in brief: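 Serum-starved (0.5% FCS, 24 h) human umbilical vein endothelial cells pretreated with compound 1 h at 37 °C, then stimulated with 50 ng/ml recombinant human VEGF for 8 min.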

IC50 [2] | IC50 ([2]; Endothelial cell) | Structure (SMILES) | TGIR, % (tumor growth inhibition rate) (Human glioma cells GL07; GL07, intraperitoneal) | Change in morphosis [1] | inhibition in vivo at 20 mg/kg (Human glioma cells GL07; Mus musculus, Glioma cell, 216 h, GL07, oral, read-out: TGIR, % (tumor growth inhibition rate))
4 nM |  | COc1cc2nccc(Oc3ccc(NC(=O)Nc4ccc(Cl)cn4)c(C)c3C)c2cc1OC [Example 28, N-(5-Chloro-2-pyridyl)-N′-{4-[(6,7-dimethoxy-4-guinolyl)oxy]-2,3-dimethylphenyl}urea] | 84% | (−) (the change in karyomorphosis of cells did not take place at 10 μM) | 
5.1 nM |  | COCCOc1cc2nccc(Oc3cc(C)c(NC(=O)Nc4ccc(F)cc4F)cc3C)c2cc1OC [Example 58] |  | (−) (the change in karyomorphosis of cells did not take place at 10 μM) | 
4.4 nM |  | COc1cc2c(Oc3cc(C)c(NC(=O)Nc4ccc(F)cc4F)cc3C)ccnc2cc1OCCN1CCOCC1 [Example 52, N-(2,4-Difluorophenyl)-N′-(4-{[6-methoxy-7-(2-morpholinoethoxy)-4-guinolyl]oxy}-2,5-dimethylphenyl)urea] |  | (−) (the change in karyomorphosis of cells did not take place at 10 μM) | 
2.5 nM |  | COc1cc2nccc(Oc3ccc(NC(=O)Nc4ccccc4C)c(C)c3C)c2cc1OC [Example 31, N-{4-[(6,7-Dimethoxy-4-guinolyl)oxy]-2,3-dimethylphenyl}-N′-(2-methylphenyl)urea] |  | (−) (the change in karyomorphosis of cells did not take place at 10 μM) | 
 | 12 nM | COc1cc2nccc(Oc3cc(C)c(NC(=O)Nc4ccc(F)cc4C)cc3C)c2cc1OC [Example 40, N-{4-[(6,7-Dimethoxy-4-quinolyl)oxy]-2,5-dimethylphenyl}-N′-(4-fluoro-2-methylphenyl)urea] |  | (−) (the change in karyomorphosis of cells did not take place at 10 μM) | 
 | 3.7 nM | COc1cc2nccc(Oc3ccc(NC(=O)Nc4cccc(C)n4)c(C)c3C)c2cc1OC [Example 35, N-{4-[(6,7-Dimethoxy-4-quinolyl)oxy]-2,3-dimethylphenyl}-N′-(6-methyl-2-pyridyl)urea] |  | (−) (the change in karyomorphosis of cells did not take place at 10 μM) | 
 | 16 nM | CCCNC(=O)Nc1ccc(Oc2ncnc3cc(OC)c(OC)cc23)cc1Cl [Example 62, N-{2-chloro-4-[(6,7-dimethoxy-4-quinazolinyl)-oxy]phenyl}-N′-propylurea] |  | (−) (the change in karyomorphosis of cells did not take place at 10 μM) | 78%
 | 4.9 nM | COc1cc2nccc(Oc3cc(C)c(NC(=O)Nc4cccc(F)c4OC)cc3C)c2cc1OC [Example 41, N-{4-[(6,7-Dimethoxy-4-quinolyl)oxy]-2,5-dimethylphenyl}-N′-(3-fluoro-2-methoxyphenyl)urea] |  | (−) (the change in karyomorphosis of cells did not take place at 10 μM) | 
 | 3.4 nM | COc1cc2nccc(Oc3ccc(NC(=O)Nc4cccc(C)n4)c(Cl)c3)c2cc1OC [Example 21, N-{2-Chloro-4-[(6,7-dimethoxy-4-quinolyl)oxy]phenyl}-N′-(6-methyl-2-pyridyl)urea] |  | (−) (the change in karyomorphosis of cells did not take place at 10 μM) | 
7.3 nM |  | COc1cc2nccc(Oc3ccc(NC(=O)Nc4ccc(Cl)cc4C)c(C)c3C)c2cc1OC [Example 32, N-(4-Chloro-2-methylphenyl)-N′-{4-[(6,7-dimethoxy-4-guinolyl)oxy]-2,3-dimethylphenyl}urea] |  | (−) (the change in karyomorphosis of cells did not take place at 10 μM) | 
 | 3.8 nM | COc1ccccc1NC(=O)Nc1cc(C)c(Oc2ccnc3cc(OC)c(OC)cc23)cc1C [Example 43, N-{4-[(6,7-Dimethoxy-4-quinolyl)oxy]-2,5-dimethylphenyl}-N′-(2-methoxyphenyl)urea] |  | (−) (the change in karyomorphosis of cells did not take place at 10 μM) | 
 | 4.3 nM | COc1cc2nccc(Oc3c(Cl)cc(NC(=O)Nc4ccc(F)cc4F)cc3Cl)c2cc1OC [Example 49, N-{3,5-Dichloro-4-[(6,7-dimethoxy-4-quinolyl)oxy]phenyl}-N′-(2,4-difluorophenyl)urea] |  | (−) (the change in karyomorphosis of cells did not take place at 10 μM) | 
5.3 nM |  | COc1cc2nccc(Oc3ccc(NC(=O)Nc4cccc(F)c4OC)c(C)c3C)c2cc1OC [Example 26, N-{4-[(6,7-Dimethoxy-4-guinolyl)oxy]-2,3-dimethylphenyl}-N′-(3-fluoro-2-methoxyphenyl)urea] |  | (−) (the change in karyomorphosis of cells did not take place at 10 μM) | 
 | 4.3 nM | COc1ccc(NC(=O)Nc2cc(C)c(Oc3ccnc4cc(OC)c(OC)cc34)cc2C)cc1 [Example 46, N-{4-[(6,7-Dimethoxy-4-quinolyl)oxy]-2,5-dimethylphenyl}-N′-(4-methoxyphenyl)urea] |  | (−) (the change in karyomorphosis of cells did not take place at 10 μM) | 
4 nM |  | CCCNC(=O)Nc1ccc(Oc2ccnc3cc(OC)c(OC)cc23)cc1[N+](=O)[O-] [Example 47, N-{4-[(6,7-Dimethoxy-4-guinolyl)oxy]-2-nitrophenyl}-N′-propylurea] |  | (−) (the change in karyomorphosis of cells did not take place at 10 μM) | 
 | 0.4 nM | COc1ccc(NC(=O)Nc2ccc(Oc3ccnc4cc(OC)c(OC)cc34)cc2Cl)cc1.Cl [Example 22, N-{2-Chloro-4-[(6,7-dimethoxy-4-quinolyl)oxy]phenyl}-N′-(4-methoxyphenyl)urea hydrochloride] |  | (−) (the change in karyomorphosis of cells did not take place at 10 μM) | 
3.3 nM |  | COc1ccc(NC(=O)Nc2ccc(Oc3ccnc4cc(OC)c(OC)cc34)c(C)c2C)cc1 [Example 36, N-{4-[(6,7-Dimethoxy-4-guinolyl)oxy]-2,3-dimethylphenyl}-N′-(4-methoxyphenyl)urea] |  | (−) (the change in karyomorphosis of cells did not take place at 10 μM) | 
 | 2 nM | COc1ccc(NC(=O)Nc2cc(C)c(Oc3ccnc4cc(OC)c(OC)cc34)cc2C)c(OC)n1 [Example 45, N-(2,6-Dimethoxy-3-pyridyl)-N′-{4-[(6,7-dimethoxy-4-quinolyl)oxy]-2,5-dimethylphenyl}urea] |  | (−) (the change in karyomorphosis of cells did not take place at 10 μM) | 
 | 5.9 nM | COc1ccccc1NC(=O)Nc1cc(C)c(Oc2ccnc3cc(OCCN4CCOCC4)c(OC)cc23)cc1C [Example 53, N-(4-{[6-Methoxy-7-(2-morpholinoethoxy)-4-quinolyl]oxy}-2,5-dimethylphenyl)-N′-(2-methoxyphenyl)urea] |  | (−) (the change in karyomorphosis of cells did not take place at 10 μM) | 
 | 5.8 nM | COCCOc1cc2nccc(Oc3cc(C)c(NC(=O)Nc4ccccc4OC)cc3C)c2cc1OC [Example 59, N-(4-{[6-Methoxy-7-(2-methoxyethoxy)-4-quinolyl]oxy}-2,5-dimethylphenyl)-N′-(2-methoxyphenyl)-urea] |  | (−) (the change in karyomorphosis of cells did not take place at 10 μM) | 
8.5 nM |  | COc1cc2nccc(Oc3ccc(NC(=O)Nc4ccc(C)cn4)c(Cl)c3)c2cc1OC [Example 20, N-{2-Chloro-4-[(6,7-dimethoxy-4-guinolyl)oxy]phenyl}-N′-(5-methyl-2-pyridyl)urea] |  | (−) (the change in karyomorphosis of cells did not take place at 10 μM) | 
1.7 nM |  | COc1ccccc1NC(=O)Nc1ccc(Oc2ccnc3cc(OC)c(OC)cc23)c(C)c1C [Example 30, N-{4-[(6,7-Dimethoxy-4-guinolyl)oxy]-2,3-dimethylphenyl}-N′-(2-methoxyphenyl)urea] |  | (−) (the change in karyomorphosis of cells did not take place at 10 μM) | 
4.2 nM |  | COc1cc2nccc(Oc3ccc(NC(=O)Nc4ccc(C)cn4)c(C)c3C)c2cc1OC [Example 34, N-{4-[(6,7-Dimethoxy-4-guinolyl)oxy]-2,3-dimethylphenyl}-N′-(5-methyl-2-pyridyl)urea] |  | (−) (the change in karyomorphosis of cells did not take place at 10 μM) | 
 | 2.8 nM | COCCOc1cc2nccc(Oc3ccc(NC(=O)Nc4ccccc4OC)c(Cl)c3)c2cc1OC [Example 55, N-(2-Chloro-4-{[6-methoxy-7-(2-methoxyethoxy)-4-quinolyl]oxy}phenyl)-N′-(2-methoxyphenyl)urea] |  | (−) (the change in karyomorphosis of cells did not take place at 10 μM) | 
3.5 nM |  | COc1cc2nccc(Oc3ccc(NC(=O)Nc4ccccn4)c(C)c3C)c2cc1OC [Example 33, N-{4-[(6,7-Dimethoxy-4-guinolyl)oxy]-2,3-dimethylphenyl}-N′-(2-pyridyl)urea] |  | (−) (the change in karyomorphosis of cells did not take place at 10 μM) | 
5.9 nM |  | COc1cc2nccc(Oc3cc(C)c(NC(=O)Nc4ccccc4C)cc3C)c2cc1OC [Example 42, N-{4-[(6,7-Dimethoxy-4-guinolyl)oxy]-2,5-dimethylphenyl}-N′-(2-methylphenyl)urea] |  | (−) (the change in karyomorphosis of cells did not take place at 10 μM) | 
